Test results reported in the kinase profiling compilation of Christmann-Franck et al. (2016).
Blank lines part the entries; values can stand above or below the compound they belong to.

Experiments:
FRK (human) = FRK (human) (UniProt P42685); test: SelectScreen, TR FRET
DCLK2 (human) = DCLK2 (human) (UniProt Q8N568); test: SelectScreen, TR FRET
CSF1R (human) = CSF1R (human) (UniProt P07333); test: SelectScreen, TR FRET
TTK (human) [1] = molecular target: TTK (human) (UniProt P33981); test: SelectScreen, TR FRET
Chain of TTK (human) (P33981 whole entry, looked up): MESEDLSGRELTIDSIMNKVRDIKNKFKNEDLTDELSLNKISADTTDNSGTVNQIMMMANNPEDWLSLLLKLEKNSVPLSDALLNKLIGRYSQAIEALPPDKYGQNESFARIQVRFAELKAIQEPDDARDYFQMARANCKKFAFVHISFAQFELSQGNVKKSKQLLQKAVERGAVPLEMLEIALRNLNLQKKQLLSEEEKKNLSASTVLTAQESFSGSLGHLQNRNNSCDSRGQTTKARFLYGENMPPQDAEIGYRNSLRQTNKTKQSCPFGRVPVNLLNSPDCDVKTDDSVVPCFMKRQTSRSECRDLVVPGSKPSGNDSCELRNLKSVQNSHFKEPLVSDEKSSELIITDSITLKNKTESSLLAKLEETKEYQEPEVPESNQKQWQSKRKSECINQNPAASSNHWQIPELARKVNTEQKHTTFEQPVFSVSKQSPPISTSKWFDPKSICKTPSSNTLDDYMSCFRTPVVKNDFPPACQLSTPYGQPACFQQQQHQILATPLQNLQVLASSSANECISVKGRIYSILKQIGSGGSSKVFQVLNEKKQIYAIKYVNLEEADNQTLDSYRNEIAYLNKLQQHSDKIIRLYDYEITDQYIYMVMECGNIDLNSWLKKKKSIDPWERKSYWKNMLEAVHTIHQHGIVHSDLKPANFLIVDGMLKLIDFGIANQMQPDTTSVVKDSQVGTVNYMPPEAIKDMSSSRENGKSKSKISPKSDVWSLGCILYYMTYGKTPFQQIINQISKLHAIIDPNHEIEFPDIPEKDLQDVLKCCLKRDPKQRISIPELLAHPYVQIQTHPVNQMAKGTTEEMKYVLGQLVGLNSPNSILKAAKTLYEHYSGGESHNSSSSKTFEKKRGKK

PTK6 (human) = PTK6 (human) (UniProt Q13882); test: SelectScreen, TR FRET
GAK (human) = GAK (human) (UniProt O14976); test: KINOMEscan competition binding; conditions: compound 10.0 µM
Chain of GAK (human) (O14976 whole entry, looked up): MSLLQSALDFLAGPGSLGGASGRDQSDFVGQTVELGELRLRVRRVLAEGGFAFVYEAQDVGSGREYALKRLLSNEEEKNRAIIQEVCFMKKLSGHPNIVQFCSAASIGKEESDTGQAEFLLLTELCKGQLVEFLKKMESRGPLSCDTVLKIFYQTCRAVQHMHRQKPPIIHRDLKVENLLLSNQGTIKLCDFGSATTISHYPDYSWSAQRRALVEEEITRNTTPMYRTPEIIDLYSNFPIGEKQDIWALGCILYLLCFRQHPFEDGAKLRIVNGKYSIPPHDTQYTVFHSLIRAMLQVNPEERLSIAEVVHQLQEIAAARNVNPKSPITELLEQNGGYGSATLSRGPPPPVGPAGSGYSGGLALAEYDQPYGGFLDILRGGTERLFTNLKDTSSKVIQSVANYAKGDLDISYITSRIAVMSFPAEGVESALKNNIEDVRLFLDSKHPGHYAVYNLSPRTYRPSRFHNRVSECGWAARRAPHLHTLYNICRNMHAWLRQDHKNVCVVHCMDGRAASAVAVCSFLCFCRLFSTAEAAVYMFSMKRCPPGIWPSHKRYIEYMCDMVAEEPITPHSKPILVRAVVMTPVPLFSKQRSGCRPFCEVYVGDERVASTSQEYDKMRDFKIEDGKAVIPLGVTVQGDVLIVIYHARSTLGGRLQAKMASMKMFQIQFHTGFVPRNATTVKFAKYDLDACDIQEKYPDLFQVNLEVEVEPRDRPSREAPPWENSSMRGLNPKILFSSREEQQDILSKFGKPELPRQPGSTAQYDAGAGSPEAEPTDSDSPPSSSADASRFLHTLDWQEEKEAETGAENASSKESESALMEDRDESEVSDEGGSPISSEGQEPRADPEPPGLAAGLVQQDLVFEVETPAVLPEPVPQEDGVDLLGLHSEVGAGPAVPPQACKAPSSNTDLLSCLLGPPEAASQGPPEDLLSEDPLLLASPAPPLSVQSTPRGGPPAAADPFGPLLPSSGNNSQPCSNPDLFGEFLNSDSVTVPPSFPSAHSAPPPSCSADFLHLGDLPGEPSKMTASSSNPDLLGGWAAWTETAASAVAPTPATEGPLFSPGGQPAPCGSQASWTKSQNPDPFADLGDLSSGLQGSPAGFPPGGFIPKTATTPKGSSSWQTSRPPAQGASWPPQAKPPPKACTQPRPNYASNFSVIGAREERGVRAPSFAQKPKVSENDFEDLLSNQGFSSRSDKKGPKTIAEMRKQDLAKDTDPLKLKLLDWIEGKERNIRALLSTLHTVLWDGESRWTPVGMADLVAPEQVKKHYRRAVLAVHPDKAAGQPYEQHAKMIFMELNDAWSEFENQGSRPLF

PLK1 (human) = PLK1 (human) (UniProt P53350); test: KINOMEscan competition binding; conditions: compound 10.0 µM
PLK4 (human) = PLK4 (human) (UniProt O00444); test: KINOMEscan competition binding; conditions: compound 10.0 µM
TTK (human) [2] = molecular target: TTK (human) (UniProt P33981); test: KINOMEscan competition binding; conditions: for kinase still bound, per cent of control: compound 10.0 µM
[3] = molecular target: JAK2 JH1 catalytic (human) (UniProt O60674); test: KINOMEscan competition binding; conditions: compound 10.0 µM
HIPK2 (human) = HIPK2 (human) (UniProt Q9H2X6); test: SelectScreen, TR FRET
DYRK1B (human) [4] = molecular target: DYRK1B (human) (UniProt Q9Y463); test: SelectScreen, TR FRET
Chain of DYRK1B (human) (Q9Y463 whole entry, looked up): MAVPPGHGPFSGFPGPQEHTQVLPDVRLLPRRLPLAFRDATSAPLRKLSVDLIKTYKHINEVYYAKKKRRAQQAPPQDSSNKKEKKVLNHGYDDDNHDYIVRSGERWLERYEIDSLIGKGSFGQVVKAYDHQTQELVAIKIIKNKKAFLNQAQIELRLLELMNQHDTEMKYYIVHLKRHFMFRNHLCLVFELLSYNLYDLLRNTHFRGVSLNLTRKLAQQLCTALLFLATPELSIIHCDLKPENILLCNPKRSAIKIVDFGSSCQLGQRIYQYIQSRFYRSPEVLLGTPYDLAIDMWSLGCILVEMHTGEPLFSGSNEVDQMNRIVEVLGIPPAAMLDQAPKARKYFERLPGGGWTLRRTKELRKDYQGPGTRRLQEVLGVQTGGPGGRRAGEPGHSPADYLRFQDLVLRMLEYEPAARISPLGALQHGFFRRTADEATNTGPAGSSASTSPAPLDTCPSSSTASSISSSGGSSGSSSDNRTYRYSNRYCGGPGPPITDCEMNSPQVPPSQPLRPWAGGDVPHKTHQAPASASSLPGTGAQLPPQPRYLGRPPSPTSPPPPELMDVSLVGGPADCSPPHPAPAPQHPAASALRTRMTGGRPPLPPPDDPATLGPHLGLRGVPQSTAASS

DYRK1A (human) = DYRK1A (human) (UniProt Q13627); test: SelectScreen, TR FRET
HIPK1 (human) [5] = molecular target: HIPK1 (human) (UniProt Q86Z02); test: SelectScreen, TR FRET
Chain of HIPK1 (human) (Q86Z02 whole entry, looked up): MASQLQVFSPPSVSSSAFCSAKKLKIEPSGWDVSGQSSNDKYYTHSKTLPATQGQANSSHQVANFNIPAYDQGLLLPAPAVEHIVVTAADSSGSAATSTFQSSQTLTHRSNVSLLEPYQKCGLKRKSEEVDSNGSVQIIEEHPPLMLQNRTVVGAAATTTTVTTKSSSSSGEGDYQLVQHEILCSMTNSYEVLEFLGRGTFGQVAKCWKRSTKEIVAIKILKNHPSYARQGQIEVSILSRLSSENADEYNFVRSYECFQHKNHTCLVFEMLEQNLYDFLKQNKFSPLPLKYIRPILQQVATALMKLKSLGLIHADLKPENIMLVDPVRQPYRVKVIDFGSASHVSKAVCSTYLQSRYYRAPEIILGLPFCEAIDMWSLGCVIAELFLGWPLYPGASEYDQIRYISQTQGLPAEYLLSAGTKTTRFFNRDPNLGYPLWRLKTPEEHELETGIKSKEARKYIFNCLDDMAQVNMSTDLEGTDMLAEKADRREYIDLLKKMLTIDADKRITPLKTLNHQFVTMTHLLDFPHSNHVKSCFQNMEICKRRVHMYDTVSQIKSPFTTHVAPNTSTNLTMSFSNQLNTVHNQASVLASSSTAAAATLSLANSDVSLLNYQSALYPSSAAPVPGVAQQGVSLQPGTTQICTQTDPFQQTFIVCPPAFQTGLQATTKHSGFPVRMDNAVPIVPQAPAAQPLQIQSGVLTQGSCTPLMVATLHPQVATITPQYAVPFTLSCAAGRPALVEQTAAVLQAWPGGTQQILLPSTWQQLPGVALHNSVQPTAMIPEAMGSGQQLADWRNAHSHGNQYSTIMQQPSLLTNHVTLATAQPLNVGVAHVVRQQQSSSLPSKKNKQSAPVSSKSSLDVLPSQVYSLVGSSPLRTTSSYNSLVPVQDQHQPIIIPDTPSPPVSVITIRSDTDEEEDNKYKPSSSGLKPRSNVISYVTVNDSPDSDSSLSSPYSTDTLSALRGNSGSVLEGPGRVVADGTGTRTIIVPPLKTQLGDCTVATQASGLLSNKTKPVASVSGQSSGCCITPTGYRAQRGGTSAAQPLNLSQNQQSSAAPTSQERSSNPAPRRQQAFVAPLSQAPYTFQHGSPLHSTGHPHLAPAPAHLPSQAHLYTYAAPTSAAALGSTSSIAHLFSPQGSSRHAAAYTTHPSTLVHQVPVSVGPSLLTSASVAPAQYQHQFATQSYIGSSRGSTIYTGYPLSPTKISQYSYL

PIM1 (human) [6] = molecular target: PIM1 (human) (UniProt P11309); test: KINOMEscan competition binding; conditions: compound 10.0 µM
Chain of PIM1 (human) (P11309 whole entry, looked up): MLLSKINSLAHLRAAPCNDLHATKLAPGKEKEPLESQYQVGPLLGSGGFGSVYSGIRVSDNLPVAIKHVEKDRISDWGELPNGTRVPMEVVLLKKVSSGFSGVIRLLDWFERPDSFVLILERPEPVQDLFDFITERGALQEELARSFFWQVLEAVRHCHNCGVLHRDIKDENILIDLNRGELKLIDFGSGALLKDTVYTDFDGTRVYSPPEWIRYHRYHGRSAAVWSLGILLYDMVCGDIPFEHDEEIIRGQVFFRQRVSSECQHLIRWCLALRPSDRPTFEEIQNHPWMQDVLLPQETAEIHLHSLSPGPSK

RPS6KA4 KD2 (human) = RPS6KA4 KD2 (human) (UniProt O75676); test: KINOMEscan competition binding; conditions: compound 10.0 µM
CSNK1G1 (human) = CSNK1G1 (human) (UniProt Q9HCP0); test: KINOMEscan competition binding; conditions: compound 10.0 µM
AAK1 (human) = AAK1 (human) (UniProt Q2M2I8); test: KINOMEscan competition binding; conditions: compound 10.0 µM
MAPK10 (human) = MAPK10 (human) (UniProt P53779); test: KINOMEscan competition binding; conditions: compound 10.0 µM
DAPK3 (human) = DAPK3 (human) (UniProt O43293); test: KINOMEscan competition binding; conditions: compound 10.0 µM
BMPR1B (human) = BMPR1B (human) (UniProt O00238); test: KINOMEscan competition binding; conditions: compound 10.0 µM
[7] = tested on: EIF2AK4 KD2 (human), Q9P2K8 [S808G]; test: KINOMEscan competition binding; conditions: compound 10.0 µM
PAK2 (human) = PAK2 (human) (UniProt Q13177); test: KINOMEscan competition binding; conditions: compound 10.0 µM
DAPK2 (human) = DAPK2 (human) (UniProt Q9UIK4); test: KINOMEscan competition binding; conditions: compound 10.0 µM
MAP4K2 (human) = MAP4K2 (human) (UniProt Q12851); test: KINOMEscan competition binding; conditions: compound 10.0 µM
PIM3 (human) = PIM3 (human) (UniProt Q86V86); test: KINOMEscan competition binding; conditions: compound 10.0 µM
DAPK1 (human) = DAPK1 (human) (UniProt P53355); test: KINOMEscan competition binding; conditions: compound 10.0 µM
DYRK1B (human) [8] = molecular target: DYRK1B (human) (UniProt Q9Y463); test: KINOMEscan competition binding; conditions: compound 10.0 µM
STK17A (human) = STK17A (human) (UniProt Q9UEE5); test: KINOMEscan competition binding; conditions: compound 10.0 µM
Chain of STK17A (human) (Q9UEE5 whole entry, looked up): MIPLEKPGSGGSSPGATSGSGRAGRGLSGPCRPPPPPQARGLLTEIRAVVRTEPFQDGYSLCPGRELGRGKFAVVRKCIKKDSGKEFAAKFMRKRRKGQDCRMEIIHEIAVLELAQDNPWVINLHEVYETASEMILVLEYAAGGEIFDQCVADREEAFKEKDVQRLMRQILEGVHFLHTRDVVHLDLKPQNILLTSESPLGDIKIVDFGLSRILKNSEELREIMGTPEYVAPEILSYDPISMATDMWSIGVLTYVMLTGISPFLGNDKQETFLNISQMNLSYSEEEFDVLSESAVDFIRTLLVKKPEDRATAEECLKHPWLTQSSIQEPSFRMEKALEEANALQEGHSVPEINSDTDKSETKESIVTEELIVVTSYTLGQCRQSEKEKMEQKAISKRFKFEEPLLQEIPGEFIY

MAPK8 (human) = MAPK8 (human) (UniProt P45983); test: KINOMEscan competition binding; conditions: compound 10.0 µM
HIPK1 (human) [9] = molecular target: HIPK1 (human) (UniProt Q86Z02); test: KINOMEscan competition binding; conditions: compound 10.0 µM
CLK1 (human) = CLK1 (human) (UniProt P49759); test: KINOMEscan competition binding; conditions: compound 10.0 µM
CLK2 (human) = CLK2 (human) (UniProt P49760); test: KINOMEscan competition binding; conditions: compound 10.0 µM
STK17B (human) = STK17B (human) (UniProt O94768); test: KINOMEscan competition binding; conditions: compound 10.0 µM
CAMKK2 (human) = CAMKK2 (human) (UniProt Q96RR4); test: KINOMEscan competition binding; conditions: compound 10.0 µM
CLK4 (human) = CLK4 (human) (UniProt Q9HAZ1); test: KINOMEscan competition binding; conditions: compound 10.0 µM
PIM2 (human) [10] = molecular target: PIM2 (human) (UniProt Q9P1W9); test: KINOMEscan competition binding; conditions: compound 10.0 µM
Chain of PIM2 (human) (Q9P1W9 whole entry, looked up): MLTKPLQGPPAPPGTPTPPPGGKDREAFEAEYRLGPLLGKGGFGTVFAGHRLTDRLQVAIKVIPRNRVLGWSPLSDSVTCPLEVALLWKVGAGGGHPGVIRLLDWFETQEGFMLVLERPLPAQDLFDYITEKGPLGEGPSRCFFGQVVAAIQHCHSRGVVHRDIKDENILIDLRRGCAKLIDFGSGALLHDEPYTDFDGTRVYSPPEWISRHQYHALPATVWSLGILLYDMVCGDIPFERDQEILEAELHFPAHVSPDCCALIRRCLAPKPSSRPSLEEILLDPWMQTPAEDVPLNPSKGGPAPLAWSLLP

RPS6KA5 KD2 (human) = RPS6KA5 KD2 (human) (UniProt O75582); test: KINOMEscan competition binding; conditions: compound 10.0 µM
STK33 (human) = STK33 (human) (UniProt Q9BYT3); test: KINOMEscan competition binding; conditions: compound 10.0 µM
DCLK1 (human) = DCLK1 (human) (UniProt O15075); test: KINOMEscan competition binding; conditions: compound 10.0 µM
CAMK2D (human) = CAMK2D (human) (UniProt Q13557); test: KINOMEscan competition binding; conditions: compound 10.0 µM
TNK1 (human) = TNK1 (human) (UniProt Q13470); test: KINOMEscan competition binding; conditions: compound 10.0 µM
RPS6KA2 KD2 (human) = RPS6KA2 KD2 (human) (UniProt Q15349); test: KINOMEscan competition binding; conditions: compound 10.0 µM
PIM1 (human) [11] = molecular target: PIM1 (human) (UniProt P11309); test: SelectScreen, TR FRET
PIM2 (human) [12] = molecular target: PIM2 (human) (UniProt Q9P1W9); test: SelectScreen, TR FRET
ACVR2B (human) = ACVR2B (human) (UniProt Q13705); test: KINOMEscan competition binding; conditions: compound 10.0 µM
CDK16 (human) = CDK16 (human) (UniProt Q00536); test: KINOMEscan competition binding; conditions: compound 10.0 µM
MAPK15 (human) = MAPK15 (human) (UniProt Q8TD08); test: KINOMEscan competition binding; conditions: compound 10.0 µM
TGFBR2 (human) = TGFBR2 (human) (UniProt P37173); test: KINOMEscan competition binding; conditions: compound 10.0 µM
GSK3A (human) = GSK3A (human) (UniProt P49840); test: KINOMEscan competition binding; conditions: compound 10.0 µM
CDK3 (human) = CDK3 (human) (UniProt Q00526); test: KINOMEscan competition binding; conditions: compound 10.0 µM
TAOK1 (human) = TAOK1 (human) (UniProt Q7L7X3); test: KINOMEscan competition binding; conditions: compound 10.0 µM
NLK (human) = NLK (human) (UniProt Q9UBE8); test: KINOMEscan competition binding; conditions: compound 10.0 µM
BRAF (human) = BRAF (human) (UniProt P15056); test: KINOMEscan competition binding; conditions: compound 10.0 µM
MAPK12 (human) = MAPK12 (human) (UniProt P53778); test: KINOMEscan competition binding; conditions: compound 10.0 µM
CDK5 (human) = CDK5 (human) (UniProt Q00535); test: KINOMEscan competition binding; conditions: compound 10.0 µM
MYLK4 (human) = MYLK4 (human) (UniProt Q86YV6); test: KINOMEscan competition binding; conditions: compound 10.0 µM
CDK7 (human) = CDK7 (human) (UniProt P50613); test: KINOMEscan competition binding; conditions: compound 10.0 µM
TAOK3 (human) = TAOK3 (human) (UniProt Q9H2K8); test: KINOMEscan competition binding; conditions: compound 10.0 µM

IC50 (FRK (human)): 264 nM
IC50 (DCLK2 (human)): 3200 nM
IC50 (CSF1R (human)): 428 nM
IC50 (TTK (human) [1]): 891 nM
IC50 (PTK6 (human)): 47 nM
kinase still bound, per cent of control (GAK (human)): 23%
kinase still bound, per cent of control (PLK1 (human)): 24%
kinase still bound, per cent of control (PLK4 (human)): 16%
Kd (TTK (human) [2]): 130 nM
kinase still bound, per cent of control (TTK (human) [2]): 2.2%
kinase still bound, per cent of control [3]: 6.4%
SMILES: CN1C(=O)CCN(C2CCCC2)c2nc(Nc3ccc(N4CCC(O)CC4)cn3)ncc21

IC50 (HIPK2 (human)): 3.89 µM
IC50 (DYRK1B (human) [4]): 62 nM
IC50 (DYRK1A (human)): 19 nM
IC50 (HIPK1 (human) [5]): 3.81 µM
kinase still bound, per cent of control (PIM1 (human) [6]): 16%
kinase still bound, per cent of control (RPS6KA4 KD2 (human)): 8.8%
kinase still bound, per cent of control (CSNK1G1 (human)): 24%
kinase still bound, per cent of control (AAK1 (human)): 20%
kinase still bound, per cent of control (MAPK10 (human)): 29%
kinase still bound, per cent of control (DAPK3 (human)): 8.6%
kinase still bound, per cent of control (BMPR1B (human)): 6.2%
kinase still bound, per cent of control [7]: 21%
kinase still bound, per cent of control (PAK2 (human)): 34%
kinase still bound, per cent of control (DAPK2 (human)): 4%
kinase still bound, per cent of control (MAP4K2 (human)): 15%
kinase still bound, per cent of control (PIM3 (human)): 12%
kinase still bound, per cent of control (DAPK1 (human)): 9.7%
kinase still bound, per cent of control (DYRK1B (human) [8]): 8.6%
kinase still bound, per cent of control (STK17A (human)): 5%
kinase still bound, per cent of control (MAPK8 (human)): 28%
kinase still bound, per cent of control (HIPK1 (human) [9]): 4.2%
kinase still bound, per cent of control (CLK1 (human)): 24%
kinase still bound, per cent of control (CLK2 (human)): 4.8%
kinase still bound, per cent of control (STK17B (human)): 13%
kinase still bound, per cent of control (CAMKK2 (human)): 29%
kinase still bound, per cent of control (CLK4 (human)): 30%
kinase still bound, per cent of control (PIM2 (human) [10]): 15%
kinase still bound, per cent of control (RPS6KA5 KD2 (human)): 23%
SMILES: N=C1NC(=O)/C(=C/c2c[nH]c(=O)c(-c3ccc4cc[nH]c4c3)c2)S1

IC50 (DCLK2 (human)): 556 nM
IC50 (TTK (human) [1]): 1010 nM
kinase still bound, per cent of control (STK33 (human)): 22%
kinase still bound, per cent of control (GAK (human)): 8.2%
kinase still bound, per cent of control (PLK1 (human)): 1.2%
kinase still bound, per cent of control (DCLK1 (human)): 27%
kinase still bound, per cent of control (CAMK2D (human)): 27%
kinase still bound, per cent of control (TNK1 (human)): 33%
Kd (TTK (human) [2]): 106 nM
kinase still bound, per cent of control (TTK (human) [2]): 3.9%
kinase still bound, per cent of control (RPS6KA2 KD2 (human)): 13%
SMILES: CCOc1cc(N2CCC(O)CC2)ccc1Nc1ncc2c(n1)N(C1CCCC1)CCC(=O)N2CC

IC50 (PIM1 (human) [11]): 573 nM
IC50 (PIM2 (human) [12]): 501 nM
kinase still bound, per cent of control (PIM1 (human) [6]): 3%
kinase still bound, per cent of control (ACVR2B (human)): 30%
kinase still bound, per cent of control (CDK16 (human)): 1.2%
kinase still bound, per cent of control (DAPK3 (human)): 24%
kinase still bound, per cent of control (TGFBR2 (human)): 22%
kinase still bound, per cent of control (GSK3A (human)): 9.9%
kinase still bound, per cent of control (CDK3 (human)): 17%
kinase still bound, per cent of control (TAOK1 (human)): 2.4%
kinase still bound, per cent of control (DAPK2 (human)): 16%
kinase still bound, per cent of control (PIM3 (human)): 4.8%
kinase still bound, per cent of control (DAPK1 (human)): 3.5%
kinase still bound, per cent of control (NLK (human)): 18%
kinase still bound, per cent of control (STK17A (human)): 1.1%
kinase still bound, per cent of control (PLK4 (human)): 15%
kinase still bound, per cent of control (BRAF (human)): 24%
kinase still bound, per cent of control (TTK (human) [2]): 24%
kinase still bound, per cent of control (HIPK1 (human) [9]): 0.65%
kinase still bound, per cent of control (MAPK12 (human)): 12%
kinase still bound, per cent of control (CDK5 (human)): 9.6%
kinase still bound, per cent of control (STK17B (human)): 6%
kinase still bound, per cent of control (MYLK4 (human)): 6.7%
kinase still bound, per cent of control (PIM2 (human) [10]): 1.8%
kinase still bound, per cent of control (CDK7 (human)): 23%
kinase still bound, per cent of control (TAOK3 (human)): 29%
SMILES: N=C1NC(=O)/C(=C/c2ccc(-c3ccc(S(N)(=O)=O)cc3)o2)S1
kinase still bound, per cent of control (MAPK15 (human)): 5.4%
